Where two headings read alike, the source gives them in different places.
Assays:
Format in all cases: in vivo
[1] = system: Aedes aegypti (Yellow Fever Mosquito); experiment: whole plant or invertebrate; settings: for mortality at 0.2 ppm / mortality at 2 ppm / mortality at 20 ppm: Aedes aegypti
Method: (§1) […] Once the deposits were dry, five non-blood fed adult female Aedes aegypti (between two to five day old) were added to each well, and sustained with a 10% sucrose solution in a cotton wool plug. Assessment of the knockdown was carried our after 1 hour, and mortality after 24 hours and 48 hours.

[2] = system: Anopheles stephensi (Indian Malaria Mosquito); experiment: Example B2: treated 12-well plate contact test, adult female Anopheles stephensi; settings: for mortality at 0.2 ppm / mortality at 2 ppm / mortality at 20 ppm: Anopheles stephensi
Method: as §1, with “Anopheles stephensi” for “Aedes aegypti”

[3] = system: Anopheles stephensi; experiment: Example B3: treated 6-well plate contact test, adult female Anopheles stephensi; settings: for mortality at 0.3125 ppm / mortality at 0.625 ppm / mortality at 1.25 ppm / mortality at 2.5 ppm: Anopheles stephensi; for Knockdown 1 h: mean of two replicates
Method: The individual wells of six (6) well tissue culture plates were treated with 250 μl of an ethanol solution containing a test compound at a defined concentration. Once the deposits were dry, ten non-blood fed adult female Anopheles stephensi (each between two to five day old) were added to each well, and sustained with a 10% sucrose solution in a cotton wool plug. Assessment of the knockdown was carried our after 1 hour, and mortality after 24 hours and 48 hours. Each treatment was replicated twice, with the mean mortality recorded.

[4] = system: VK7 2014 (An. coluzzii, DDT & pyrethroid resistant); experiment: Example B4: bottle based cross resistance study (CDC bottle assay), strain VK7 2014; set-up: unit not given here; settings: 1 h bottle exposure
Method: (§2) Based on the “CDC bottle assay” (described at http://www.cdc.gov/malaria/resources/pdf/fsp/ir_manual/ir_cdc_bioassay_en.pdf) 1 ml of ethanol containing a test compound at a defined concentration was added to a 250 ml glass bottle and the bottles were placed on a rolling table to coat the inner surfaces as the solvent evaporated. Once dry, twenty five non-blood fed adult female mosquitoes of the appropriate species and strains (each three day old) were aspirated from the stock culture and gently blown into the exposure bottles. The lid of the bottle was replaced and the bottle placed upright out of direct sun light under standard culture conditions, nominally 26° C. and 60-80% relative humidity.
(§3) A stopwatch was started, and the assessment of the knock-down were made after 15 mins and 60 minutes. A mosquito was said to be knocked down if it was unable to stand, following the CDC definition. The bottles were replaced in an upright position when not being assessed.
(§4) After one hour the mosquitoes were carefully removed from the bottle with an aspirator and placed in a recovery cup. The mosquitoes were supplied with a 10% sucrose solution on a cotton wool bung, and stored under culture conditions. Assessments of the mortality were made after 24 hours.
(§5) Each treatment was replicated a minimum of three times, with the exception of the Banfora strain, where only a single replicate was undertaken, with the mean knockdown or mortality recorded. In each study, a set of bottles was infested with a known insecticide susceptible strain of mosquitoes from the same genera as the resistant strains.

[5] = system: Tiassalé 13 (An. gambiae, pyrethroid resistant); experiment: Example B4: bottle based cross resistance study (CDC bottle assay), strain Tiassalé 13; settings: Anopheles gambiae, read-out: mean knockdown or mortality (Table B4 does not name the quantity)
Method: as §2, §3, §4, §5

[6] = system: Banfora (An. gambiae, DDT & pyrethroid resistant); experiment: Example B4: bottle based cross resistance study (CDC bottle assay), strain Banfora; settings: Anopheles gambiae, read-out: knockdown or mortality (Table B4 does not name the quantity)
Method: as §2, §3, §4, §5

[7] = system: Kisumu sus (Anopheles gambiae, susceptible); experiment: Example B4: bottle based cross resistance study (CDC bottle assay), strain Kisumu sus; settings: read-out: mean knockdown or mortality (Table B4 does not name the quantity)
Method: as §2, §3, §4, §5

[8] = 0.2 ppm, 24 h, read-out: adult mortality 24 h
[9] = 0.2 ppm, 48 h, read-out: adult mortality 48 h
[10] = 2 ppm, 24 h, read-out: adult mortality 24 h
[11] = 2 ppm, 48 h, read-out: adult mortality 48 h
[12] = 20 ppm, 24 h, read-out: adult mortality 24 h
[13] = 20 ppm, 48 h, read-out: adult mortality 48 h
[14] = 24 h, read-out: adult mortality 24 h
[15] = 48 h, read-out: adult mortality 48 h
[16] = Tiassalé 13, rate 6.25 ppm, 1 h bottle exposure
[17] = Tiassalé 13, rate 12.5 ppm, 1 h bottle exposure
[18] = Tiassalé 13, rate 25 ppm, 1 h bottle exposure
[19] = Banfora, rate 6.25 ppm, 1 h bottle exposure, single replicate
[20] = Banfora, rate 12.5 ppm, 1 h bottle exposure, single replicate
[21] = Banfora, rate 25 ppm, 1 h bottle exposure, single replicate

CO/C=C(/C(=O)OC)c1ccccc1Oc1nc(Cl)c(C(F)(F)F)s1 [Compound of formula I, Methyl (E)-2-[2-[4-chloro-5-(trifluoromethyl)thiazol-2-yl]oxyphenyl]-3-methoxy-prop-2-enoate] was tested, and the “adult knockdown 1 h” value ([1]; 0.2 ppm) was 0, the “adult knockdown 1 h” value ([1]; 2 ppm) was 20 and the “adult knockdown 1 h” value ([1]; 20 ppm) was 100. It also gave a mortality at 0.2 ppm [1, 8] of 20%, a mortality at 0.2 ppm [1, 9] of 20% and a mortality at 2 ppm [1, 10] of 60%. The mortality at 2 ppm [1, 11] was 80%, the mortality at 20 ppm [1, 12] was 100% and the mortality at 20 ppm [1, 13] was 100%. For the same molecule, the “adult knockdown 1 h” value ([2]; 0.2 ppm) was 0, the “adult knockdown 1 h” value ([2]; 2 ppm) was 80 and the “adult knockdown 1 h” value ([2]; 20 ppm) was 100. For the same molecule, the mortality at 0.2 ppm [2, 14] was 20%, the mortality at 2 ppm [2, 14] was 100% and the mortality at 20 ppm [2, 14] was 100%. It also gave a mortality at 0.2 ppm [2, 15] of 20%, a mortality at 2 ppm [2, 15] of 100% and a mortality at 20 ppm [2, 15] of 100%. It also gave a mortality at 0.3125 ppm ([3]; 24 h, read-out: Mortality 24 h) of 63%, a mortality at 0.625 ppm ([3]; 24 h, read-out: Mortality 24 h) of 80% and a mortality at 1.25 ppm ([3]; 24 h, read-out: Mortality 24 h) of 98%. It also gave a mortality at 2.5 ppm ([3]; 24 h, read-out: Mortality 24 h) of 100%, a mortality at 0.3125 ppm ([3]; 48 h, read-out: Mortality 48 h) of 65% and a mortality at 0.625 ppm ([3]; 48 h, read-out: Mortality 48 h) of 82%. For the same molecule, the mortality at 1.25 ppm ([3]; 48 h, read-out: Mortality 48 h) was 100%, the mortality at 2.5 ppm ([3]; 48 h, read-out: Mortality 48 h) was 100% and the “Knockdown 1 h” value ([3]; rate 0.3125 ppm) was 20. For the same molecule, the “Knockdown 1 h” value ([3]; rate 0.625 ppm) was 43, the “Knockdown 1 h” value ([3]; rate 1.25 ppm) was 70 and the “Knockdown 1 h” value ([3]; rate 2.5 ppm) was 87. The “mean knockdown or mortality (Table B4 does not name the quantity)” value ([4]; VK7 2014, rate 6.25 ppm) was 10, the “mean knockdown or mortality (Table B4 does not name the quantity)” value ([4]; VK7 2014, rate 12.5 ppm) was 61 and the “mean knockdown or mortality (Table B4 does not name the quantity)” value ([4]; VK7 2014, rate 25 ppm) was 100. It also gave a mean knockdown or mortality at 6.25 ppm [5, 16] of 69%, a mean knockdown or mortality at 12.5 ppm [5, 17] of 81% and a mean knockdown or mortality at 25 ppm [5, 18] of 100%. For the same molecule, the knockdown or mortality (%) at 6.25 ppm [6, 19] was 26%, the knockdown or mortality (%) at 12.5 ppm [6, 20] was 52% and the knockdown or mortality (%) at 25 ppm [6, 21] was 100%. The percent knockdown or mortality at 6.25 ppm ([7]; Kisumu sus, rate 6.25 ppm, 1 h bottle exposure) was 74%, the percent knockdown or mortality at 12.5 ppm ([7]; Kisumu sus, rate 12.5 ppm, 1 h bottle exposure) was 99% and the percent knockdown or mortality at 25 ppm ([7]; Kisumu sus, rate 25 ppm, 1 h bottle exposure) was 100%.

In the case of CO/C=C(/C(=O)OC)c1ccccc1Oc1ncc(C(F)(F)F)s1 [Compound of formula II, Methyl (E)-3-methoxy-2-[2-[5-(trifluoromethyl)thiazol-2-yl]oxyphenyl]-prop-2-enoate], the “adult knockdown 1 h” value ([1]; 0.2 ppm) is reported as 0, the “adult knockdown 1 h” value ([1]; 2 ppm) is reported as 0 and the “adult knockdown 1 h” value ([1]; 20 ppm) is reported as 100. It also gave a mortality at 0.2 ppm [1, 8] of 0%, a mortality at 0.2 ppm [1, 9] of 0% and a mortality at 2 ppm [1, 10] of 0%. For the same molecule, the mortality at 2 ppm [1, 11] was 0%, the mortality at 20 ppm [1, 12] was 100% and the mortality at 20 ppm [1, 13] was 100%. For the same molecule, the “adult knockdown 1 h” value ([2]; 0.2 ppm) was 0, the “adult knockdown 1 h” value ([2]; 2 ppm) was 0 and the “adult knockdown 1 h” value ([2]; 20 ppm) was 100. It also gave a mortality at 0.2 ppm [2, 14] of 0%, a mortality at 2 ppm [2, 14] of 80% and a mortality at 20 ppm [2, 14] of 100%. For the same molecule, the mortality at 0.2 ppm [2, 15] was 0%, the mortality at 2 ppm [2, 15] was 100% and the mortality at 20 ppm [2, 15] was 100%. For the same molecule, the mortality at 0.3125 ppm ([3]; 24 h, read-out: Mortality 24 h) was 15%, the mortality at 0.625 ppm ([3]; 24 h, read-out: Mortality 24 h) was 33% and the mortality at 1.25 ppm ([3]; 24 h, read-out: Mortality 24 h) was 83%. The mortality at 2.5 ppm ([3]; 24 h, read-out: Mortality 24 h) was 93%, the mortality at 0.3125 ppm ([3]; 48 h, read-out: Mortality 48 h) was 22% and the mortality at 0.625 ppm ([3]; 48 h, read-out: Mortality 48 h) was 30%. For the same molecule, the mortality at 1.25 ppm ([3]; 48 h, read-out: Mortality 48 h) was 88%, the mortality at 2.5 ppm ([3]; 48 h, read-out: Mortality 48 h) was 97% and the “Knockdown 1 h” value ([3]; rate 0.3125 ppm) was 13. The “Knockdown 1 h” value ([3]; rate 0.625 ppm) was 27, the “Knockdown 1 h” value ([3]; rate 1.25 ppm) was 48 and the “Knockdown 1 h” value ([3]; rate 2.5 ppm) was 73. The “mean knockdown or mortality (Table B4 does not name the quantity)” value ([4]; VK7 2014, rate 6.25 ppm) was 7, the “mean knockdown or mortality (Table B4 does not name the quantity)” value ([4]; VK7 2014, rate 12.5 ppm) was 18 and the “mean knockdown or mortality (Table B4 does not name the quantity)” value ([4]; VK7 2014, rate 25 ppm) was 100. For the same molecule, the mean knockdown or mortality at 6.25 ppm [5, 16] was 55%, the mean knockdown or mortality at 12.5 ppm [5, 17] was 46% and the mean knockdown or mortality at 25 ppm [5, 18] was 100%. The knockdown or mortality (%) at 6.25 ppm [6, 19] was 13%, the knockdown or mortality (%) at 12.5 ppm [6, 20] was 33% and the knockdown or mortality (%) at 25 ppm [6, 21] was 100%. It also gave a percent knockdown or mortality at 6.25 ppm ([7]; 1 h) of 61%, a percent knockdown or mortality at 12.5 ppm ([7]; 1 h) of 33% and a percent knockdown or mortality at 25 ppm ([7]; 1 h) of 100%.

For CC1(C)C(C=C(Cl)Cl)C1C(=O)OCc1cccc(Oc2ccccc2)c1 (stereo not drawn) [Permethrin], the “mean knockdown or mortality (Table B4 does not name the quantity)” value ([4]; VK7 2014, rate 6.25 ppm) was 5, the “mean knockdown or mortality (Table B4 does not name the quantity)” value ([4]; VK7 2014, rate 12.5 ppm) was 3 and the “mean knockdown or mortality (Table B4 does not name the quantity)” value ([4]; VK7 2014, rate 25 ppm) was 7. For the same molecule, the mean knockdown or mortality at 6.25 ppm ([5]; 1 h) was 13%, the mean knockdown or mortality at 12.5 ppm ([5]; 1 h) was 45% and the mean knockdown or mortality at 25 ppm ([5]; 1 h) was 69%. For the same molecule, the knockdown or mortality (%) at 6.25 ppm ([6]; 1 h) was 14%, the knockdown or mortality (%) at 12.5 ppm ([6]; 1 h) was 38% and the knockdown or mortality (%) at 25 ppm ([6]; 1 h) was 45%. It also gave a percent knockdown or mortality at 5 ppm ([7]; 1 h) of 100%, a percent knockdown or mortality at 10 ppm ([7]; 1 h) of 100% and a percent knockdown or mortality at 20 ppm ([7]; 1 h) of 100%.

Reference: patent publication US11369113B2, “Vector control compositions, methods and products utilizing same” (Syngenta Participations AG, priority 2017, dated 2022)
